Test results as given in patent US9464053B2, “Compositions for reducing Aβ 42 production and their use in treating alzheimer's disease (AD)” (KAREUS THERAPEUTICS SA, priority 2010, dated 2016).
Marks after values point to notes of the source that are not given here.

Key:
Wistar rats = test: Morris water maze task, scopolamine memory deficit; assay type: in vivo, rat; conditions: mean, p.o., scopolamine-treated
Protocol: Male wistar rats are used for this study. The Water maze consists of a 1.8 m diameter; 0.6 m high circular tank filled with water (24±2° C.). A platform 16 cm diameter will be placed 1.0 cm below the water surface in the center of one of the four imaginary quadrants, which remains constant for all the rats. […] Rats were lowered gently, feet first into water. A rat was allowed to swim for 60 s to find the platform. If the platform was found during this time the trial was stopped and rat was allowed to stay on platform for 30 s before being removed from the maze. If the platform was not found during 60 s trial, then the rat was manually placed on the platform facing a visual cue and allowed to stay on platform for 30 s before being removed from the maze. The rats were taken off the platform (ensuring that the rat sees the investigator's hand from the front before removal) and dried with a towel gently. Each rat received 4 trials in a day. The maze has 8 starting points. On the first and third day the animals started from 1st, 3rd, 5th & 7th starting points. On the second and fourth day the animals started from 2nd, 4th, 6th & […] starting points. Retention of the task was assessed on 5th day in which each animal received a single 120 s probe trial during which platform was removed from the pool. Rats were not treated prior to retention trail. Rats were placed under a heating lamp for 5 min before being returned to its home cage. Latency to reach the platform ([…]), swim speed (cm/s) and path length (cm) was measured in acquisition trials. Percentage time spent in target quadrant (quadrant in which platform is placed during acquisition training) and swim speed (cm/s) was calculated in probe trial. The animals were tracked and the data was generated using the Video Mot 2 software. Experimentation was carried out over a period of 10 days i.e. first 6 animals was experimented on first five days and the next 6 animals was experimented on next five days (Pretreatment and testing schedule was initiated accordingly such that all animals receive 9 doses of vehicle or test drug). Data obtained was analyzed by Repeated measures Two way ANOVA followed by Bonferroni post tests by using the Graph pad prism software package.

soluble brain aβ-40 = test: Tg2576 transgenic mouse model, soluble brain aβ-40 (ELISA); assay type: in vivo; conditions: Tg 2576 mice, 4 weeks, 50 mg/kg orally daily
Protocol: (§1) The study used 6-month old Tg (HuApp695.K670-M671L) 2576 transgenic and age-matched C57B16/SJL non-transgenic control mice (Hsiao K, Chapman P, Nilsen S, Eckman C, Harigaya Y, et al. Correlative memory deficits, Abeta elevation, and amyloid plaques in transgenic mice. Science. 1996; 274:99-102). Mice were obtained from Jackson Labs and a colony was established. Tg2576 transgenic mice over-express human APP with the double Swedish mutation. Tg2756 and control mice were treated for a period of 4 weeks with either 1) vehicle alone n=10), 2) compound 9 (50 mg/kg dosed orally; n=10). Soluble brain aβ-42 and aβ-40 were measured using the typical ELISA protocol described before.

soluble brain aβ-42 = test: Tg2576 transgenic mouse model, soluble brain aβ-42 (ELISA); assay type: in vivo; conditions: Tg 2576 mice, 4 weeks, 50 mg/kg orally daily
Protocol: as §1

Aβ42 secretion = test: Reduction of Aβ42 production in human neuronal SH-SY5Y cells (sandwich ELISA of cell media); assay type: cell-based; conditions: SH-SY5Y cells incubated overnight, Aβ42 in media by sandwich ELISA, read-out: Aβ42 IC50
Protocol: We used the human Neuroblastoma SH-SY5Y cells for drug testing as a model for Aβ42 production. […] Cell toxicity was monitored using the MTT assay and all data reported are corrected for any cell loss.
The capture antibody, detection antibody and secondary antibody as well as standard purified preparations of Aβ42 were obtained from Sigma-Aldrich. Cells were cultured for 24 h in the presence or absence of compounds and the conditioned medium was subjected to sELISA.
Cells were incubated overnight with increasing concentrations the compounds. The cell media was then harvested and Aβ42 in the media was quantitated using sandwich ELISA.

Aβ-42 levels in brain = test: Brain Aβ-42 levels in rat after two weeks oral treatment (ELISA); assay type: in vivo; conditions: 2 weeks; for Aβ-42 levels Mean ± SE: rat brain, soluble fraction; for Percentage change: vs Control
Protocol: Animals are randomized into different treatment groups based on body weight. The test compounds are administered orally for 2 weeks while the control animals are administered the vehicle alone.
At the end of the study, animals are sacrificed 2 hours after the last dose and brain samples are excised and immediately frozen on dry ice. The frozen brains are homogenized in 3 volumes (w/v) of ice-cold 0.2% Diethylamine containing 50 mM NaCl, pH 10, and protease inhibitors, and then centrifuged at 15000 rpm at 4° C. for 30 min using a centrifuge. The resulting supernatant is retained as the soluble fraction and neutralized by addition of 10% 0.5 M Tris-HCl, pH 6.8.
Ar3-42 levels in brain tissue extracts were determined by ELISA. […] 100 μL of this was coated per well in a 96 well immunoplate (NUNC) at 4° C. for 16-18 hours. The plate was washed 3× with 230 μL of wash buffer. The wells were then blocked with 150 μL of blocking buffer for 1 hour. The plate was washed 3× with 230 μL of wash buffer. Samples, standard (2500-1.1 ng/ml) and blank were added to the appropriate wells and incubated with mild shaking for 2 hours. The plate was then washed 3× with 230 μL of wash buffer. […] 100 μL of this was added per well and incubated with mild shaking for 2 hours. The plate was washed 3× with 230 μl of wash buffer. 100 lit of Detection antibody, Anti-rabbit IgG whole molecule HRP conjugate (Sigma A6154 diluted 1:1000 with 1% BSA) added in to the wells and incubated for 2 hours with mild shaking. The plate was washed 3× with 230 μl of wash buffer followed by 100 μL of Strepavidin HRP (1:200 diluted with 1% BSA). The plate was 3× with 230 μL of wash buffer and 100 μL of TMB/H2O2 substrate was added and incubated for 20 minutes. The reaction was topped by adding 50 μL of 2N H2SO4 and the absorbance was measured at 450/570 nm in a microplate reader (BioTek)

[1] = Day-1 acquisition trials, 1 mg/kg
[2] = Day-1 acquisition trials, 3 mg/kg
[3] = Day-1 acquisition trials, 10 mg/kg
[4] = Day-2 acquisition trials, 1 mg/kg
[5] = Day-2 acquisition trials, 3 mg/kg
[6] = Day-2 acquisition trials, 10 mg/kg
[7] = Day-3 acquisition trials, 1 mg/kg
[8] = Day-3 acquisition trials, 3 mg/kg
[9] = Day-3 acquisition trials, 10 mg/kg
[10] = Day-4 acquisition trials, 1 mg/kg
[11] = Day-4 acquisition trials, 3 mg/kg
[12] = Day-4 acquisition trials, 10 mg/kg

C=CCc1ccc(OC(=O)CC(OC(=O)c2cccnc2)C(=O)OC)c(OC)c1 (stereo not drawn) [Compound 9, 2-(Pyridine-3-carbonyloxy)-succinic acid 4-(4-allyl-2-methoxy-phenyl) ester 1-methyl ester] gave a Path length (Wistar rats; [1]) of 1423.43 cm, a Swim speed (Wistar rats; [1]) of 26.53 cm/s and a Target latency (Wistar rats; [1]) of 53859.40 ms. The Path length (Wistar rats; [2]) was 1329.08 cm, the Swim speed (Wistar rats; [2]) was 25.77 cm/s and the Target latency (Wistar rats; [2]) was 50283.22^ ms. It also gave a Path length (Wistar rats; [3]) of 1480.57 cm, a Swim speed (Wistar rats; [3]) of 26.93 cm/s and a Target latency (Wistar rats; [3]) of 54445.94 ms. It also gave a Path length (Wistar rats; [4]) of 1619.28 cm, a Swim speed (Wistar rats; [4]) of 30.67 cm/s and a Target latency (Wistar rats; [4]) of 51421.60 ms. For the same molecule, the Path length (Wistar rats; [5]) was 1503.53 cm, the Swim speed (Wistar rats; [5]) was 29.97 cm/s and the Target latency (Wistar rats; [5]) was 48347.97^ ms. For the same molecule, the Path length (Wistar rats; [6]) was 1755.96 cm, the Swim speed (Wistar rats; [6]) was 31.99 cm/s and the Target latency (Wistar rats; [6]) was 53382.85 ms. The Path length (Wistar rats; [7]) was 1414.4745^ cm, the Swim speed (Wistar rats; [7]) was 31.07 cm/s and the Target latency (Wistar rats; [7]) was 43128.23 ms. The Path length (Wistar rats; [8]) was 1038.10** cm, the Swim speed (Wistar rats; [8]) was 28.45** cm/s and the Target latency (Wistar rats; [8]) was 32780.27** ms. The Path length (Wistar rats; [9]) was 1509.45 cm, the Swim speed (Wistar rats; [9]) was 30.89^ cm/s and the Target latency (Wistar rats; [9]) was 45171.54 ms. The Path length (Wistar rats; [10]) was 1233.92* cm, the Swim speed (Wistar rats; [10]) was 29.51* cm/s and the Target latency (Wistar rats; [10]) was 40643.54 ms. For the same molecule, the Path length (Wistar rats; [11]) was 946.10*** cm, the Swim speed (Wistar rats; [11]) was 28.57*** cm/s and the Target latency (Wistar rats; [11]) was 31915.04*** ms. For the same molecule, the Path length (Wistar rats; [12]) was 1254.41^ cm, the Swim speed (Wistar rats; [12]) was 29.36** cm/s and the Target latency (Wistar rats; [12]) was 40663.06 ms. For the same molecule, the “reduction of brain levels of soluble aβ-40” value (soluble brain aβ-40) was 23%, the “reduction of brain levels of soluble aβ-42” value (soluble brain aβ-42) was 22% and the IC50 (Aβ42 secretion) was 18.7 µM. The “Aβ-42 levels Mean ± SE” value (Aβ-42 levels in brain; 10 mg/kg oral) was 44.14 ± 7.88 ng/mg protein, the “Aβ-42 levels Mean ± SE” value (Aβ-42 levels in brain; 25 mg/kg oral) was 31.03 ± 3.98 ng/mg protein and the “Aβ-42 levels Mean ± SE” value (Aβ-42 levels in brain; 50 mg/kg oral) was 21.85 ± 1.75 ng/mg protein. It also gave a Percentage change (Aβ-42 levels in brain; 10 mg/kg oral) of −22%, a Percentage change (Aβ-42 levels in brain; 25 mg/kg oral) of −45% and a Percentage change (Aβ-42 levels in brain; 50 mg/kg oral) of −61%.
